According to publication PMC4085797, “Synthetic Inositol Phosphate Analogs Reveal that PPIP5K2 Has a Surface-Mounted Substrate Capture Site that Is a Target for Drug Discovery” (Chemistry & Biology, 2014):
Changes are numbered by the printed parent chain. Read-outs that look alike come from different tables or passages of the source.

Key:
Format in all cases: biochemical
PPIP5K2^KD E192G mutant = target: T1, PPIP5K2^KD E192G mutant (Homo sapiens, UniProt O43314, E192G); test: ATPase activity of E192G mutant
T1 construct: The kinase domain of human PPIP5K2 (PPIP5K2^KD; residues 1–366); made in house
T1 sequence (O43314 1-366 E192G): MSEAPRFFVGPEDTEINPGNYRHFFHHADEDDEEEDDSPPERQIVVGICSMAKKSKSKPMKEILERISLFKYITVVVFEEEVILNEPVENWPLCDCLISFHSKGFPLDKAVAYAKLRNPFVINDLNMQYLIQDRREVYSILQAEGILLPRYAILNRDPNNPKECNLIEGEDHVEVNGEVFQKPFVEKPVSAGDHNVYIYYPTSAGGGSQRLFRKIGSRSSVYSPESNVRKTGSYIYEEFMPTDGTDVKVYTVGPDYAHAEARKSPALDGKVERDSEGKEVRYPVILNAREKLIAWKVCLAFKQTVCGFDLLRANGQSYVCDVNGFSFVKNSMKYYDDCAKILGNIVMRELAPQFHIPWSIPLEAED
Protocol: (§1) The initial InsP6 concentration was either 500 nM, 70 nM, or 40 nM. Various concentrations of 2,5-di-O-Bn-InsP4 were present as indicated. Radioactivity was assessed using an in-line Flo1 detector. The ADP-driven dephosphorylation of 100 nM 1,5-[PP]2-InsP4 by PPIP5K2^KD was usually determined by a luminescence-based assay of ATP accumulation ([Riley et al., 2012; Weaver et al., 2013]). The IC50 values were determined using GraphPad Prism v6.02 (n ≥ 3). In some experiments, 1,5-[PP]2-[^3H]InsP4 dephosphorylation by PPIP5K2^KD was assayed in 50 μl buffer containing 50 mM KCl, 20 mM HEPES pH 7.0, 7 mM MgSO4, 5 mM ADP, 1 mM EDTA. Reactions were then quenched, neutralized, and analyzed with HPLC using a Partisphere SAX column ([Weaver et al., 2013]); 1 ml fractions were collected for liquid scintillation spectrometry. The ATPase activity of PPIP5K2^KD (10–270 μg/ml) was assayed from Pi release following incubation at 37°C for 120–180 min in 20 μl reaction mixtures containing 20 mM Tris/HCl, pH 7.5, 10 mM ATP, 100 mM KCl, 0.1 mM EDTA, and 13 mM MgCl2.
(§2) Protein Expression, Purification, Crystallization and Structure Determination […]
(§3) The structure was further manually rebuilt with COOT and refined with PHENIX and
(§4) REFMAC from the CCP4 package. Ligand topology and parameter files were prepared using
the PRODRG server. The molecular graphics representations were prepared with the program
PyMol (Schrödinger, LLC). The 2D ligand-protein interaction diagrams were generated by
LigPlot+. Atomic coordinates and structure factors have been deposited with the Protein Data
Bank with accession codes: 4NZM, 4NZN, 4NZO.
Mutants were generated using a site-directed mutagenesis kit (Stratagene). Pairs of complementary
primers were designed as shown below, with mutagenic primers underlined (only 5’ primers are
All mutated constructs were sequenced. Mutant proteins were expressed and purified as for wild-

PPIP5K2^KD K54A mutant = target: T2, PPIP5K2^KD K54A mutant (Homo sapiens, UniProt O43314, K54A); test: ATPase activity of K54A mutant; settings: Figures 7B and 7C
T2 construct: The kinase domain of human PPIP5K2 (PPIP5K2^KD; residues 1–366); made in house
T2 sequence (O43314 1-366 K54A): T1 sequence (O43314 1-366 E192G) with K54A, G192E
Protocol: as §1, §2, §3, §4
the PRODRG server. The molecular graphics representations were prepared with the program […]

PPIP5K2^KD R213A mutant = target: T3, PPIP5K2^KD R213A mutant (Homo sapiens, UniProt O43314, R213A); test: ATPase activity of R213A mutant; settings: Figures 7B and 7C
T3 construct: The kinase domain of human PPIP5K2 (PPIP5K2^KD; residues 1–366); made in house
T3 sequence (O43314 1-366 R213A): T1 sequence (O43314 1-366 E192G) with G192E, R213A
Protocol: as §1

PPIP5K2^KD H194A mutant = target: T4, PPIP5K2^KD H194A mutant (Homo sapiens, UniProt O43314, H194A); test: ATPase activity of H194A mutant; settings: data not shown
T4 construct: The kinase domain of human PPIP5K2 (PPIP5K2^KD; residues 1–366); made in house
T4 sequence (O43314 1-366 H194A): T1 sequence (O43314 1-366 E192G) with G192E, H194A
Protocol: as §1

[1] = target: T5, PPIP5K2^KD (kinase domain of human PPIP5K2) (Homo sapiens, UniProt O43314); test: ATPase activity of PPIP5K2KD (Pi release); settings: for stimulation of ATPase activity (in words): 25 μM, wild-type enzyme, Figure 2
T5 construct: The kinase domain of human PPIP5K2 (PPIP5K2^KD; residues 1–366); made in house
T5 sequence (O43314 1-366): T1 sequence (O43314 1-366 E192G) with G192E
Protocol: as §1

SMILES	rate of ligand-stimulated ATPase activity vs wild-type (in words) (PPIP5K2^KD E192G mutant)	stimulation of ATPase activity vs wild-type (in words) (PPIP5K2^KD K54A mutant)	stimulation of ATPase activity vs wild-type (in words) (PPIP5K2^KD R213A mutant)	ATPase activity in the presence of analog (in words) (PPIP5K2^KD H194A mutant)	stimulation of ATP hydrolysis ([1]; 25 μM analog)	stimulation of ATPase activity (in words) [1]	EC50 ([1]; dose-response, key of Figure 4A, n = 3, read-out: EC50, stimulation of ATPase activities)	EC50 ([1]; Figure 4A, read-out: EC50, stimulation of ATPase activity)
O=C(CP(=O)(O)O)O[C@@H]1[C@@H](OP(=O)(O)O)[C@H](OP(=O)(O)O)[C@H](OCc2ccccc2)[C@H](OP(=O)(O)O)[C@H]1OP(=O)(O)O [compound 2, 2-O-benzyl-5-O-α-phosphonoacetyl-myo-inositol 1,3,4,6-tetrakisphosphate]	neither of these particular mutations altered the rate	substantially impaired degree of stimulation	substantially impaired degree of stimulation	did not exhibit any detectable ATPase activity	9 fold	strongly activated	550 nM	
O=P(O)(O)O[C@@H]1[C@@H](OCc2ccccc2)[C@H](OP(=O)(O)O)[C@@H](OP(=O)(O)O)[C@@H](OCc2ccccc2)[C@H]1OP(=O)(O)O [compound 10, 2,5-di-O-Bn-InsP4]	neither of these particular mutations altered the rate	substantially impaired degree of stimulation	substantially impaired degree of stimulation	did not exhibit any detectable ATPase activity		highest degree of ATPase activity among all of the analogs		340 nM
